# Experimental data as given in patent US6346260B1, “Microbicidal active ingredients” (Ciba Specialty Chemicals Corporation, priority 1999, dated 2002).
# Assays:
# Format in all cases: cell-based
# [1] = system: Escherichia coli NCTC 8196; assay: MIC in microtitre plates, Escherichia coli; settings: Escherichia coli, NCTC8196; Table 1; NCTC 8196; 48 hours at 37° C.; ≦20% growth; read-out: MIC Escherichia coli
# Procedure: (§1) Determination of Antimicrobial Activity in Accordance with the Microtitre Plate Method Determination of the Minimum Inhibitory Concentration (MIC value) in Microtitre Plates casein-soybean flour-peptone bouillon for the preparation of the precultures of the test bacteria and yeast. Escherichia coli NCTC 8196 The test substances are predissolved in dimethyl sulfoxide (DMSO) and tested in a dilution series of 1:2. Bacteria and yeast are cultured overnight in CASO bouillon, the mould on mycological slant agar and rinsed off with 10 ml of 0.85% sodium chloride solution (+0.1% TritonX-100). All test organisms are adjusted to an organism count of 1-5*10^6 CFU/ml with 0.85% sodium chloride solution. The test substances are prepipetted into microtitre plates in an amount of 8 μl per well. Previously diluted test organism suspensions are diluted 1:100 in CASO bouillon (bacteria and yeast) and Sabouraud 2% glucose bouillon (mould) and added to the test substances in an amount of 192 μl per well. The test batches are incubated for 48 hours at 37° C. (bacteria and yeast) or for 5 days at 28° C. (mould). After incubation, the growth is determined by reference to the turbidity of the test batches (optical density) at 620 nm in a microplate reader. The minimum inhibitory concentration (MIC value) is the concentration of substance at which (compared with the growth of the control) an appreciable inhibition of the growth (≦20% growth) of the test organisms is ascertained. One microtitre plate is used for each test organism and substance concentration. All substances are tested in duplicate.
# [2] = system: Candida albicans ATCC 10231; assay: MIC in microtitre plates, Candida albicans; settings: Candida albicans, ATCC10231; Table 1; ATCC 10231; 48 hours at 37° C.; ≦20% growth; read-out: MIC Candida albicans
# Procedure: as §1, with “Candida albicans ATCC 10231” for “Escherichia coli NCTC 8196”
# [3] = system: Aspergillus niger ATCC 6275; assay: MIC in microtitre plates, Aspergillus niger; settings: Aspergillus niger, ATCC6275, 120 h; Table 1; ATCC 6275; 5 days at 28° C.; ≦20% growth; read-out: MIC Aspergillus niger
# Procedure: as §1, with “Mycological slant agar” for “casein-soybean flour-peptone bouillon”, “preculture” for “preparation”, “moulds. Aspergillus niger ATCC 6275” for “the precultures of the test bacteria and yeast. Escherichia coli NCTC 8196”
# [4] = system: Penicillium expansum ATCC 36200; assay: MIC in microtitre plates, Penicillium expansum; settings: ATCC36200, 120 h, Table 1, 5 days at 28° C., ≦20% growth
# Procedure: as §1, with “Mycological slant agar” for “casein-soybean flour-peptone bouillon”, “preculture” for “preparation”, “moulds. Penicillium expansum ATCC 36200” for “the precultures of the test bacteria and yeast. Escherichia coli NCTC 8196”, “The minimum inhibitory concentration (MIC value) is the concentration of substance at which (compared with the growth of the control) an appreciable inhibition of the growth (≦20% growth) of the test organisms is ascertained. One microtitre plate is used for each test organism and substance concentration. All substances are tested in duplicate.” left out
compound,measurement,setting,value
O=C(CC(=O)c1ccccc1O)c1ccco1 [Compound of formula (101)],MIC,[1],50 µg/mL
same,MIC,[2],100 to 500 µg/mL
same,MIC,[3],100 µg/mL
same,MIC,[4],100 µg/mL
